From article PMC6089342 (ACS chemical biology, 2017)

How the values were obtained:
PARP14 MD2 = molecular target: T1, PARP14 MD2 (Homo sapiens, UniProt Q460N5); assay: Isothermal titration calorimetry; type: binding; settings: negative control, Figure 1D
T1 sequence (Q460N5 994-1191): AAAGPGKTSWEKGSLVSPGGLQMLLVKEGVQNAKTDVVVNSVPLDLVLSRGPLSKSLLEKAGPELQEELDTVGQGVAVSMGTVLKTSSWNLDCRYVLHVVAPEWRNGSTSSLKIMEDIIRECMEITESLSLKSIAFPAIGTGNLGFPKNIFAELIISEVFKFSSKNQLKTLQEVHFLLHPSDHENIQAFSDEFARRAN

YFP-PARP14 MD2 = molecular target: T2, YFP-PARP14 MD2 (Homo sapiens, UniProt Q460N5); assay: Laser micro-irradiation assay, recruitment of YFP-PARP14 MD2 to DNA damage sites; type: cell-based; settings: U-2 OS cells
T2 sequence (Q460N5 1003-1190 limits assumed): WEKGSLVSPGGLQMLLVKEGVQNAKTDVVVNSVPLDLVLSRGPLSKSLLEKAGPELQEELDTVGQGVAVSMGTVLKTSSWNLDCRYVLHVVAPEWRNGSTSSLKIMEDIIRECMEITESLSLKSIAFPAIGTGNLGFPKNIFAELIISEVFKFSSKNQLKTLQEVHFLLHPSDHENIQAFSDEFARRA

| Compound | binding to PARP14 MD2 (PARP14 MD2) | PARP14 MD2 recruitment to laser-induced DNA damage sites (YFP-PARP14 MD2; negative control, concentration not given) | PARP14 MD2 recruitment to laser-induced DNA damage sites (YFP-PARP14 MD2; 10 µM, pre-treated 1 hour) |
| --- | --- | --- | --- |
| CC(=O)Nc1ccncc1-c1cccc2c1[nH]c1ccccc12 [MnK2-68] | did not bind | did not interfere with PARP14 MD2 recruitment |  |
| O=C(c1cc(Cc2n[nH]c(=O)c3ccccc23)ccc1F)N1CCN(C(=O)C2CC2)CC1 [Olaparib, reference compound] |  |  | recruitment of the macrodomain could not be detected |
